Results from patent US12157741B2, “Macrocyclic inhibitors of DYRK1A” (DANA-FARBER CANCER INSTITUTE, INC., priority 2018, dated 2024).
Like-named read-outs stand apart in the source and are kept apart here.

Experiments:
Format in all cases: binding
various enzymes [1] = target: various enzymes (Homo sapiens, UniProt O60331); settings: compound 1 uM
Method: (§1) Ambit profiling was conducted in accordance with the manufacturer's instructions.

various enzymes [2] = target: various enzymes (Homo sapiens, UniProt O75914); settings: compound 1 uM
Method: as §1

various enzymes [3] = target: various enzymes (Homo sapiens, UniProt O94804); settings: compound 1 uM
Method: as §1

various enzymes [4] = target: various enzymes (Homo sapiens, UniProt O96013); settings: compound 1 uM
Method: as §1

various enzymes [5] = target: various enzymes (Homo sapiens, UniProt P07949); settings: compound 1 uM
Method: as §1

various enzymes [6] = target: various enzymes (Homo sapiens, UniProt P10721, A829P)
Method: as §1

various enzymes [7] = target: various enzymes (Homo sapiens, UniProt P10721, L576P)
Method: as §1

various enzymes [8] = target: various enzymes (Homo sapiens, UniProt P10721, V559D)
Method: as §1

various enzymes [9] = target: various enzymes (Homo sapiens, UniProt P11802); settings: compound 1 uM
Method: as §1

various enzymes [10] = target: various enzymes (Homo sapiens, UniProt P19525); settings: compound 1 uM
Method: as §1

various enzymes [11] = target: various enzymes (Homo sapiens, UniProt P24941); settings: compound 1 uM
Method: as §1

various enzymes [12] = target: various enzymes (Homo sapiens, UniProt P29597); settings: compound 1 uM
Method: as §1

various enzymes [13] = target: various enzymes (Homo sapiens, UniProt P35626); settings: compound 1 uM
Method: as §1

various enzymes [14] = target: various enzymes (Homo sapiens, UniProt P37023); settings: compound 1 uM
Method: as §1

various enzymes [15] = target: various enzymes (Homo sapiens, UniProt P42336, M1043I)
Method: as §1

various enzymes [16] = target: various enzymes (Homo sapiens, UniProt P42345); settings: compound 1 uM
Method: as §1

various enzymes [17] = target: various enzymes (Homo sapiens, UniProt P42679); settings: compound 1 uM
Method: as §1

various enzymes [18] = target: various enzymes (Homo sapiens, UniProt P49137); settings: compound 1 uM
Method: as §1

various enzymes [19] = target: various enzymes (Homo sapiens, UniProt P49336); settings: compound 1 uM
Method: as §1

various enzymes [20] = target: various enzymes (Homo sapiens, UniProt P50750); settings: compound 1 uM
Method: as §1

various enzymes [21] = target: various enzymes (Homo sapiens, UniProt P51955); settings: compound 1 uM
Method: as §1

various enzymes [22] = target: various enzymes (Homo sapiens, UniProt Q00532); settings: compound 1 uM
Method: as §1

various enzymes [23] = target: various enzymes (Homo sapiens, UniProt Q00535); settings: compound 1 uM
Method: as §1

various enzymes [24] = target: various enzymes (Homo sapiens, UniProt Q02763); settings: compound 1 uM
Method: as §1

various enzymes [25] = target: various enzymes (Homo sapiens, UniProt Q12866); settings: compound 1 uM
Method: as §1

various enzymes [26] = target: various enzymes (Homo sapiens, UniProt Q15746); settings: compound 1 uM
Method: as §1

various enzymes [27] = target: various enzymes (Homo sapiens, UniProt Q59H18); settings: compound 1 uM
Method: as §1

various enzymes [28] = target: various enzymes (Homo sapiens, UniProt Q86UE8); settings: compound 1 uM
Method: as §1

various enzymes [29] = target: various enzymes (Homo sapiens, UniProt Q8IYT8); settings: compound 1 uM
Method: as §1

various enzymes [30] = target: various enzymes (Homo sapiens, UniProt Q8N4C8); settings: compound 1 uM
Method: as §1

various enzymes [31] = target: T1, various enzymes (Homo sapiens, UniProt Q99640); settings: compound 1 uM
T1 sequence (Q99640 1-499): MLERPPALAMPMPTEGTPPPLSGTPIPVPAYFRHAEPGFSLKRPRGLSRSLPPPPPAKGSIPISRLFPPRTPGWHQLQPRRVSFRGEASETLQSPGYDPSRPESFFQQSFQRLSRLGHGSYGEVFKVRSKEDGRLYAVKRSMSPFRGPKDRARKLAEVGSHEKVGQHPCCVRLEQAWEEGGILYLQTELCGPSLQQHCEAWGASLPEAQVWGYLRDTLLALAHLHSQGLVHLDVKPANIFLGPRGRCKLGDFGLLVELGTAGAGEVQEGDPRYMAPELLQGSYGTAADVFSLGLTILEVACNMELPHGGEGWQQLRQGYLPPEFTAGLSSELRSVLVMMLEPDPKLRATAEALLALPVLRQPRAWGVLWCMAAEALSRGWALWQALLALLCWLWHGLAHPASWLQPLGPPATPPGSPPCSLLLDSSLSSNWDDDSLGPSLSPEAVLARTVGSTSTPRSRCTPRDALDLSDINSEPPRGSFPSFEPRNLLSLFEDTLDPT
Method: as §1

various enzymes [32] = target: various enzymes (Homo sapiens, UniProt Q99683); settings: compound 1 uM
Method: as §1

various enzymes [33] = target: various enzymes (Homo sapiens, UniProt Q9C098); settings: compound 1 uM
Method: as §1

various enzymes [34] = target: various enzymes (Homo sapiens, UniProt Q9H2K8); settings: compound 1 uM
Method: as §1

various enzymes [35] = target: various enzymes (Homo sapiens, UniProt Q9HCP0); settings: compound 1 uM
Method: as §1

various enzymes [36] = target: various enzymes (Homo sapiens, UniProt Q9UIK4); settings: compound 1 uM
Method: as §1

various enzymes [37] = target: various enzymes (Homo sapiens, UniProt Q9UPE1); settings: compound 1 uM
Method: as §1

Chain of various enzymes (Homo sapiens, UniProt P29597) (P29597 whole entry): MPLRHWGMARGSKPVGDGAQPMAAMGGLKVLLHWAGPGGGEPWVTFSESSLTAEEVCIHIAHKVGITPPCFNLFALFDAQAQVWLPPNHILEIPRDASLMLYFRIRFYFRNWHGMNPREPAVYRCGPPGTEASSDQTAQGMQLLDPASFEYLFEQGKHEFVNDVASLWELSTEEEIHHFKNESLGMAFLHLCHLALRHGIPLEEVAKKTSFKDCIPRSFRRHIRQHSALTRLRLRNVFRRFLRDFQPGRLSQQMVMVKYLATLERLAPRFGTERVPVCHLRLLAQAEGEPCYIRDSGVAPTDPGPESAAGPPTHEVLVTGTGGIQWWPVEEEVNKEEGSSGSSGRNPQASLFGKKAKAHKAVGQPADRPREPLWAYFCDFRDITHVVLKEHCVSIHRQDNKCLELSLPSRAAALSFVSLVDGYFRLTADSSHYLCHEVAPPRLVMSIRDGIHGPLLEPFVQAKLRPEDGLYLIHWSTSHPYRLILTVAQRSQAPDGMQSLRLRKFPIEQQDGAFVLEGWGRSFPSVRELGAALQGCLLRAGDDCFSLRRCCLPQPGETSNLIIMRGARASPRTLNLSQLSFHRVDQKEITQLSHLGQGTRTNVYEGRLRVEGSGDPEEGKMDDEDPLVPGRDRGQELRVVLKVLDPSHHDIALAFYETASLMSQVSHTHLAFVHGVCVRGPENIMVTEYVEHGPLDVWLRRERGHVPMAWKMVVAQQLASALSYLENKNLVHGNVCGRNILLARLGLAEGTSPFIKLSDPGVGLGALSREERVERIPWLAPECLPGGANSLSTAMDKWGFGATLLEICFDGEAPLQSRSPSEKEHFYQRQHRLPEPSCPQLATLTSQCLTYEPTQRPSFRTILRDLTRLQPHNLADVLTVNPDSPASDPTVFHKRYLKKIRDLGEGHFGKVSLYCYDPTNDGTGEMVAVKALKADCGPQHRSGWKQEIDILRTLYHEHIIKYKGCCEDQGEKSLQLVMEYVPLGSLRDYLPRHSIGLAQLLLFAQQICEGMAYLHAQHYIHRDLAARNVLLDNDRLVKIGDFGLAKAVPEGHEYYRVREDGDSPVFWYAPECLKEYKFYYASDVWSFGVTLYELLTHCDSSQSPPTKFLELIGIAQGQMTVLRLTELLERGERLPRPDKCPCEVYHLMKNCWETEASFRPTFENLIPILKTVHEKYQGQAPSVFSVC
Chain of various enzymes (Homo sapiens, UniProt P11802) (P11802 whole entry): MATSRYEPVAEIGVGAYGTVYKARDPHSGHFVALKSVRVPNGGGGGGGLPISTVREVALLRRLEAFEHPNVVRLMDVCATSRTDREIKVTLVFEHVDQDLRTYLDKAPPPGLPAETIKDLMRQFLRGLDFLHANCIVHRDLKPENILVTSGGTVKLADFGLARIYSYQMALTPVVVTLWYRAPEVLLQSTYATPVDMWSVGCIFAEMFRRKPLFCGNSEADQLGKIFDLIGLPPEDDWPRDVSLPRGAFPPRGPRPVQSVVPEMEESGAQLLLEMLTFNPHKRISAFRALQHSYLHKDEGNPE
Chain of various enzymes (Homo sapiens, UniProt P10721, V559D) (P10721 26-976 V559D): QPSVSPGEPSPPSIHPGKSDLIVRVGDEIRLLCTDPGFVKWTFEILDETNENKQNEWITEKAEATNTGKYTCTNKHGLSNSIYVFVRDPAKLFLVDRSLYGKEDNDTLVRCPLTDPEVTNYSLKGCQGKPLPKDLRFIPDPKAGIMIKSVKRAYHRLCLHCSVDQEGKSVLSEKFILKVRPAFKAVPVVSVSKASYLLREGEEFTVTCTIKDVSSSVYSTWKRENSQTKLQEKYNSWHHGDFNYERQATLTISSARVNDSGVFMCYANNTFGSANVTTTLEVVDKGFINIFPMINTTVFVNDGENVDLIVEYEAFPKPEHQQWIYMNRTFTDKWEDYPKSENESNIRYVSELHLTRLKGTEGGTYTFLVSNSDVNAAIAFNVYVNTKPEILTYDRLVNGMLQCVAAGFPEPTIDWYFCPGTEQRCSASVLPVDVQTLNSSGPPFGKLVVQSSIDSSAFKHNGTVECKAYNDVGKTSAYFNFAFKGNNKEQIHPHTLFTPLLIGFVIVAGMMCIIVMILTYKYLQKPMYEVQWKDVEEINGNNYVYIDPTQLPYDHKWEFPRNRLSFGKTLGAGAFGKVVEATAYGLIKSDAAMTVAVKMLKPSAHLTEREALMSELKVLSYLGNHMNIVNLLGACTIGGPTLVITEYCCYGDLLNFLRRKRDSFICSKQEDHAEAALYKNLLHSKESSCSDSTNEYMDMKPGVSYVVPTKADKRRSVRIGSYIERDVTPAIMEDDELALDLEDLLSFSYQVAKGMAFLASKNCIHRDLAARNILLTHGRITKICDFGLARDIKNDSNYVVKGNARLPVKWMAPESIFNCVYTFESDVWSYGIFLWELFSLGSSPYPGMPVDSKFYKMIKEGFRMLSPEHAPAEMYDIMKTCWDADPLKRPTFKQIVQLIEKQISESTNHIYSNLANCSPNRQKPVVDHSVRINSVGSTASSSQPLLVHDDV
Chain of various enzymes (Homo sapiens, UniProt Q86UE8) (Q86UE8 whole entry): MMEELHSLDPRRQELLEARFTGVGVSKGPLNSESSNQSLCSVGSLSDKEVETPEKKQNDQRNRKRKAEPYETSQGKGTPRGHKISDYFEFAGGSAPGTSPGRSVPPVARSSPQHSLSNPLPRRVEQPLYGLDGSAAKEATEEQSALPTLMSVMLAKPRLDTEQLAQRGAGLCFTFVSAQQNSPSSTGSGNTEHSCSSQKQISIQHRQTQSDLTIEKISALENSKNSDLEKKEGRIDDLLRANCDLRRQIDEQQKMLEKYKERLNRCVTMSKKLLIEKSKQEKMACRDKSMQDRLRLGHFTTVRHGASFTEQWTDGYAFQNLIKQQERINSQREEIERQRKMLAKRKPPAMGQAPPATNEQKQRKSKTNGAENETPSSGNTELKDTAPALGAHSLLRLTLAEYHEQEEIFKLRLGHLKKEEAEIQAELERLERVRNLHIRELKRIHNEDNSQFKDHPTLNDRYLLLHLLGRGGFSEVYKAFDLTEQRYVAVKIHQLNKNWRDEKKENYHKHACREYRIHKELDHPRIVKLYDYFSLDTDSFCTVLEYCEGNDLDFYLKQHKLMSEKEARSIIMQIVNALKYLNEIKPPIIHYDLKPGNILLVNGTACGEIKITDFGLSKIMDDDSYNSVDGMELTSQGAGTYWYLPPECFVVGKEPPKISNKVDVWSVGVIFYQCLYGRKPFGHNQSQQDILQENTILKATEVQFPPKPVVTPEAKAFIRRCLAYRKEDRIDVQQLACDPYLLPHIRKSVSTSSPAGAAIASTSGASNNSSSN
Chain of various enzymes (Homo sapiens, UniProt P42679) (P42679 whole entry): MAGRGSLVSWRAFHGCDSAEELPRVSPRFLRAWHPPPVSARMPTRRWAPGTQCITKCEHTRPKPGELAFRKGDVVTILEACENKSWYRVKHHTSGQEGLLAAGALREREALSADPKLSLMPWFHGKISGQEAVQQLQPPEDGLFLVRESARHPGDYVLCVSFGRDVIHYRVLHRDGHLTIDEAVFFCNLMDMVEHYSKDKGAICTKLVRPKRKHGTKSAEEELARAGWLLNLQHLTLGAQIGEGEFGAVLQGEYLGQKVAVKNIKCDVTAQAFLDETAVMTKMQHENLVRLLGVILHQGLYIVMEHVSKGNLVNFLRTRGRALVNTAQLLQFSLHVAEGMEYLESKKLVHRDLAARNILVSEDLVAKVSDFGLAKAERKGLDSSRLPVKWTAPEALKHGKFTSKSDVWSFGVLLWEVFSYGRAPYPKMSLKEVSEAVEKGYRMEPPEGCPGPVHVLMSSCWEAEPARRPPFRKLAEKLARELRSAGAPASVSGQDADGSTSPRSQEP
Chain of various enzymes (Homo sapiens, UniProt P42336, M1043I) (P42336 whole entry M1043I): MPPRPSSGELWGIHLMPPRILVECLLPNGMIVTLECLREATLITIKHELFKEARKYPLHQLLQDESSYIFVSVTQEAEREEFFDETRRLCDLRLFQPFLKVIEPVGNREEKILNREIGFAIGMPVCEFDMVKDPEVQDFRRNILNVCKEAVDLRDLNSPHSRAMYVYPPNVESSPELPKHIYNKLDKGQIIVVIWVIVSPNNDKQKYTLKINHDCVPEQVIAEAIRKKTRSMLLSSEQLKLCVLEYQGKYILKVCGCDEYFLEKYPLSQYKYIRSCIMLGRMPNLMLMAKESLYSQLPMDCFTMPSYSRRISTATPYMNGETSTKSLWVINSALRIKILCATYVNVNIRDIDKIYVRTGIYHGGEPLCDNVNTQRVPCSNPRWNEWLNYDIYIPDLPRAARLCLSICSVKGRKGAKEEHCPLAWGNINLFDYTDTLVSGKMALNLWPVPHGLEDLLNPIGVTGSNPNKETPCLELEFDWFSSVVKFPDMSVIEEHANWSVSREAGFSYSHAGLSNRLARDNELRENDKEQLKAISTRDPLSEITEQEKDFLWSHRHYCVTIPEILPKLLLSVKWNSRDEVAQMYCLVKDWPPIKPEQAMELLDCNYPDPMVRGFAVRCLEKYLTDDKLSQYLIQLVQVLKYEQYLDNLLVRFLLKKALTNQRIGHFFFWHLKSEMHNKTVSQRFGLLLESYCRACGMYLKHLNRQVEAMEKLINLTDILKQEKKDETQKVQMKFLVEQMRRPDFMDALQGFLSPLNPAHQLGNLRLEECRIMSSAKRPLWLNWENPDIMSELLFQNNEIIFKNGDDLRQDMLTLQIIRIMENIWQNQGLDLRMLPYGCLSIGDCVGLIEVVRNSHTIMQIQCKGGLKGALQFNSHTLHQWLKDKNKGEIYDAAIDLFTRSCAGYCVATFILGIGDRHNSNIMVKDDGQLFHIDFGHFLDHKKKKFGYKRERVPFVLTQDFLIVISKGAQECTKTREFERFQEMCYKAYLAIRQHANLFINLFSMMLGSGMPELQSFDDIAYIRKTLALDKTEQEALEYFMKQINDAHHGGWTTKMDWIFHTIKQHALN
Chain of various enzymes (Homo sapiens, UniProt P10721, A829P) (P10721 26-976 A829P): as the sequence (P10721 26-976 V559D) above, with D534V, A804P counted along it
Chain of various enzymes (Homo sapiens, UniProt P10721, L576P) (P10721 26-976 L576P): as the sequence (P10721 26-976 V559D) above, with D534V, L551P counted along it

SMILES | Ambit profiling: PIP5K1C (various enzymes [1]) | Ambit profiling: PAK3 (various enzymes [2]) | Ambit profiling: LOK (various enzymes [3]) | Ambit profiling: PAK4 (various enzymes [4]) | Ambit profiling: RET (various enzymes [5]) | Ambit profiling: CDK4 (various enzymes [9]) | Ambit profiling: CDK4-cyclinD1 (various enzymes [9]) | Ambit profiling: CDK4-cyclinD3 (various enzymes [9]) | Ambit profiling: PRKR (various enzymes [10]) | Ambit profiling: CDK2 (various enzymes [11]) | Ambit profiling: TYK2(JH1domain-catalytic) (various enzymes [12]) | Ambit profiling: TYK2(JH2domain-pseudokinase) (various enzymes [12]) | Ambit profiling: GRK3 (various enzymes [13]) | Ambit profiling: ACVRL1 (various enzymes [14]) | Ambit profiling: MTOR (various enzymes [16]) | Ambit profiling: CTK (various enzymes [17]) | Ambit profiling: MAPKAPK2 (various enzymes [18]) | Ambit profiling: CDK8 (various enzymes [19]) | Ambit profiling: CDK9 (various enzymes [20]) | Ambit profiling: NEK2 (various enzymes [21]) | also measured
CC(C)N1Cc2nn(C)cc2-c2cnc3[nH]cc(c3c2)-c2cn(nc2C(F)(F)F)CCCC1=O [Compound 45, (Z)-5-isopropyl-31-methyl-13-(trifluoromethyl)-11H,21H,31H-5-aza-2(3,5)-pyrrolo[2,3-b]pyridina-1(4,1),3(4,3)-dipyrazolacyclononaphan-6-one] | 5.8 | 12 | 4.7 | 76 | 0.15 | 100 | 53 | 100 | 71 | 35 | 19 | 100 | 100 | 36 | 69 | 70 | 100 | 100 | 60 | 49 | Ambit profiling: KIT(A829P) (various enzymes [6]; compound 1 uM): 14; Ambit profiling: KIT(L576P) (various enzymes [7]; compound 1 uM): 4.5; Ambit profiling: KIT(V559D) (various enzymes [8]; compound 1 uM): 3.2; Ambit profiling: PIK3CA(M1043I) (various enzymes [15]; compound 1 uM): 81; Ambit profiling: CDKL1 (various enzymes [22]): 39; Ambit profiling: CDK5 (various enzymes [23]): 86; Ambit profiling: TIE2 (various enzymes [24]): 6.7; Ambit profiling: MERTK (various enzymes [25]): 0.6; Ambit profiling: MYLK (various enzymes [26]): 37; Ambit profiling: TNNI3K (various enzymes [27]): 72; Ambit profiling: TLK2 (various enzymes [28]): 86; Ambit profiling: ULK2 (various enzymes [29]): 56; Ambit profiling: MINK (various enzymes [30]): 1.8; Ambit profiling: PKMYT1 (various enzymes [31]): 92; Ambit profiling: ASK1 (various enzymes [32]): 100; Ambit profiling: DCAMKL3 (various enzymes [33]): 19; Ambit profiling: TAOK3 (various enzymes [34]): 22; Ambit profiling: CSNK1G1 (various enzymes [35]): 100; Ambit profiling: DAPK2 (various enzymes [36]): 100; Ambit profiling: SRPK3 (various enzymes [37]): 13
COc1c2c(nn1C)CN(C(C)C)C(=O)CCCn1cc(c(C(F)(F)F)n1)-c1c[nH]c3ncc-2cc13 [Compound 50, (Z)-5-isopropyl-35-methoxy-31-methyl-13-(trifluoromethyl)-11H,21H,31H-5-aza-2(3,5)-pyrrolo[2,3-b]pyridina-1(4,1),3(4,3)-dipyrazolacyclononaphan-6-one] | 32 | 24 | 0.4 | 91 | 0.1 | 88 | 76 | 81 | 84 | 62 | 19 | 84 | 85 | 67 | 98 | 53 | 100 | 67 | 47 | 68 | Ambit profiling: KIT(A829P) (various enzymes [6]): 19; Ambit profiling: KIT(L576P) (various enzymes [7]): 4; Ambit profiling: KIT(V559D) (various enzymes [8]): 0.95; Ambit profiling: PIK3CA(M1043I) (various enzymes [15]): 86; Ambit profiling: CDKL1 (various enzymes [22]): 51; Ambit profiling: CDK5 (various enzymes [23]): 89; Ambit profiling: TIE2 (various enzymes [24]): 2.7; Ambit profiling: MERTK (various enzymes [25]): 3.5; Ambit profiling: MYLK (various enzymes [26]): 14; Ambit profiling: TNNI3K (various enzymes [27]): 72; Ambit profiling: TLK2 (various enzymes [28]): 91; Ambit profiling: ULK2 (various enzymes [29]): 96; Ambit profiling: MINK (various enzymes [30]): 0; Ambit profiling: PKMYT1 (various enzymes [31]): 86; Ambit profiling: ASK1 (various enzymes [32]): 100; Ambit profiling: DCAMKL3 (various enzymes [33]): 56; Ambit profiling: TAOK3 (various enzymes [34]): 63; Ambit profiling: CSNK1G1 (various enzymes [35]): 81; Ambit profiling: DAPK2 (various enzymes [36]): 67; Ambit profiling: SRPK3 (various enzymes [37]): 38
